Assay results from patent publication US20210220301A1, “Pharmaceutical or Nutritional Combination Comprising Beta-Hydroxy-Betamethylbutyrate” (Abbott Laboratories, priority 2016, published 2021).

Key:
lean body mass = details: humans; Deutz et al., Clin Nutr. 2013; cited from earlier work
[1] = tested on: rats subjected to dexamethasone-induced muscle loss; assay: Dexamethasone-induced muscle loss in rats: soleus muscle mass after 21 days; type: in vivo, Sprague-Dawley rats; details: 200 mg/kg/day white curcumin alone, co-administered with 0.1 mg/kg/day dexamethasone i.p., day 21, FIG. 1, t-test P<0.05
Protocol: A study was carried out to investigate the effect of a composition comprising HMB and white curcumin (THC) in a well-established animal model for human muscle loss (β-Hydroxy-β-methylbutyrate (HMB) normalizes dexamethasone-induced autophagy-lysosomal pathway in skeletal muscle. Giron M D, Vilchez J D, Shreeram S, Salto R, Manzano M, Cabrera E, Campos N, Edens N K, Rueda R, Lopez-Pedrosa J M. PLoS One. 2015 Feb. 6; 10(2):e0117520. doi: 10.1371/journal.pone.0117520. eCollection 2015).
Experimental design—Male Sprague-Dawley rats (8-10 weeks old) (n=42) having a body weight of 270-310 g were randomly assigned to seven experimental groups (six rats per group). Groups 1-6 were administered 0.1 mg/kg/day dexamethasone (a synthetic glucocorticoid) by intraperitoneal injection for 21 days to induce muscle loss. The dexamethasone was administered at 2 mL/kg of 1.75 mg dexamethasone in 35 mL saline. Group 7 (a sham control) was administered saline without the dexamethasone.
Group 1 (a pathological control) was administered the 0.1 mg/kg/day dexamethasone alone. […]
The body weight of each rat was measured daily. On day 21 the soleus and rectus femoris muscles from each rat were collected and weighed and the lean mass of each rat was recorded. The fore limb and hind limb grip strengths were also measured. […]

Compound | minimum dose of HMB at which benefits (preserving lean body mass and muscle strength) occur (lean body mass) | soleus muscle mass relative to the pathological control [1]
CC(C)(O)CC(=O)O [HMB, 3-hydroxy-3-methylbutanoic acid] | 50 mg/kg/day | 
COc1cc(CCC(=O)CC(=O)CCc2ccc(O)c(OC)c2)ccc1O [white curcumin, 1,7-bis(4-hydroxy-3-methoxyphenyl)heptane-3,5-dione] |  | did not have a significant effect
